These are literature values, as cited in US6277963A, “Antibodies directed toward extracellular signal-related kinases” (Regeneron Pharmaceuticals, Inc., priority 1997, dated 2001).

This series concerns the target MAP2 kinase (partially purified enzyme) (Mus musculus, UniProt P63085).

Sequence of MAP2 kinase (partially purified enzyme) (P63085 whole entry): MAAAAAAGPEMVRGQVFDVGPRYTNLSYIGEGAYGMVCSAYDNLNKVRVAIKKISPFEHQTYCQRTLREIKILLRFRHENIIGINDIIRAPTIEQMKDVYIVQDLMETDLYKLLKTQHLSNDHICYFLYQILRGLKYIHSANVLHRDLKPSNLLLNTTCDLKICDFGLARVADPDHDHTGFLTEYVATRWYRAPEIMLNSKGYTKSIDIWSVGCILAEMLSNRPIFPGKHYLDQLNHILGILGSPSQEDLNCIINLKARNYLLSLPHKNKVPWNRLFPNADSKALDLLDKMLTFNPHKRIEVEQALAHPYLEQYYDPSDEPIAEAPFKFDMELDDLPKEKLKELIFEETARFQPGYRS

Consider `Nc1ncnc2c1ncn2[C@@H]1O[C@H](COP(=O)(O)OP(=O)(O)OP(=O)(O)O)[C@@H](O)[C@H]1O` [ATP], for which, under “read-out: Km for ATP”, the Km was 7 µM. As to `Nc1nc2c(ncn2[C@@H]2O[C@H](COP(=O)(O)OP(=O)(O)OP(=O)(O)O)[C@@H](O)[C@H]2O)c(=O)[nH]1` [GTP], the “utilization of GTP” value was “did not appear to utilize GTP”.

As a reminder, the Km is the substrate concentration at which the rate is half of its maximum.
